Test results as given in article doi:10.1101/2022.07.20.500776v2 (biorxiv, 2022).

Experiments:
Format in all cases: biochemical
[1] = biological target: T1, Vibrio alkaline phosphatase (VAP) (Vibrio sp. G15-21, UniProt Q93P54, K441L); experiment: steady-state pNPP hydrolysis at […] nm, Michaelis-Menten fit; details: pH 8.0, 100 mM Tris-HCl, 1 mM MgCl2, 10 °C, no added NaCl
T1 sequence (Q93P54 20-521 K441L): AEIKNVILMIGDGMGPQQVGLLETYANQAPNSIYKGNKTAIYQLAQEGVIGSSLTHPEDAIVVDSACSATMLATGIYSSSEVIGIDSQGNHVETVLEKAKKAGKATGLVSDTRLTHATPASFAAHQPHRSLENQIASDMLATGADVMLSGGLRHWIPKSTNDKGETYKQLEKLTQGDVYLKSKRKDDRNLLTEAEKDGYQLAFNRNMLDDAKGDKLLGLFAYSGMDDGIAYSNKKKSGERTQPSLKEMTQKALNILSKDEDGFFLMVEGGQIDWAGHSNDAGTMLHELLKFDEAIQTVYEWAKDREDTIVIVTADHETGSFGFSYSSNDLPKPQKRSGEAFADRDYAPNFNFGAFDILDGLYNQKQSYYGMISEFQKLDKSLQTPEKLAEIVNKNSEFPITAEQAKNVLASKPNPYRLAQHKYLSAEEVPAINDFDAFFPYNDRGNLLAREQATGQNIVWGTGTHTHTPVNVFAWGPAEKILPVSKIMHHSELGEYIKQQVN

[2] = biological target: T2, Vibrio alkaline phosphatase (VAP) (Vibrio sp. G15-21, UniProt Q93P54, A240D); experiment: as above; details: pH 8.0, 100 mM Tris-HCl, 1 mM MgCl2, 10 °C, no added NaCl
T2 sequence (Q93P54 20-521 A240D): T1 sequence (Q93P54 20-521 K441L)

[3] = biological target: T3, Vibrio alkaline phosphatase (VAP) (Vibrio sp. G15-21, UniProt Q93P54, K441E); experiment: as above; details: pH 8.0, 100 mM Tris-HCl, 1 mM MgCl2, 10 °C, no added NaCl
T3 sequence (Q93P54 20-521 K441E): T1 sequence (Q93P54 20-521 K441L)

[4] = biological target: T4, Vibrio alkaline phosphatase (VAP) (Vibrio sp. G15-21, UniProt Q93P54, Y241P); experiment: as above; details: pH 8.0, 100 mM Tris-HCl, 1 mM MgCl2, 10 °C, no added NaCl
T4 sequence (Q93P54 20-521 Y241P): T1 sequence (Q93P54 20-521 K441L)

[5] = biological target: T5, Vibrio alkaline phosphatase (VAP) (Vibrio sp. G15-21, UniProt Q93P54, K441L/Y442F); experiment: as above; details: pH 8.0, 100 mM Tris-HCl, 1 mM MgCl2, 10 °C, no added NaCl
T5 sequence (Q93P54 20-521 K441L/Y442F): T1 sequence (Q93P54 20-521 K441L)

[6] = biological target: T6, Vibrio alkaline phosphatase (VAP) (Vibrio sp. G15-21, UniProt Q93P54); experiment: steady-state pNPP hydrolysis at […] nm, […] HEPES
T6 sequence (Q93P54 20-521): T1 sequence (Q93P54 20-521 K441L)

Ki [6] [mM]	Structure (SMILES)	Km [1] [µM]	Km [2] [µM]	Km [3] [µM]	Km [4] [µM]	Km [5] [µM]
	O=[N+]([O-])c1ccc(OP(=O)(O)O)cc1 [pNPP]	6.6 ± 3.1	12.8 ± 3.8	7 ± 1.6	4.9 ± 3.4	8.8 ± 2.4
21.3	O=S(=O)(O)CCN1CCN(CCO)CC1 [HEPES]					
